From the supplement of paper PMC11061612

Tests used:
Assay in all cases: Bliss excess, mean over the matrix (fraction); higher = more synergy
GB-1 (Glioblastoma) = tested on: GB-1 (Glioblastoma)
Procedure, shortened: (§1)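 Bliss excess equals the observed combination effect minus the expected value EA + EB − EA·EB, where EA and EB are the effects of each agent alone. Combination Emax is the second-highest inhibition within the matrix. Inhibition was scaled from CellTiter-Glo 2.0 luminescence, with 0 set by vehicle wells and 1 by blank wells, after 72 hours of two-drug dosing of cells plated in 1536-well plates.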

[1] = tested on: HCT-15 (Colorectal Carcinoma)
Procedure, shortened: as §1

[2] = tested on: HEC-1 (Endometrial Carcinoma)
Procedure, shortened: as §1

[3] = tested on: KE-37 (T-Lymphoblastic Leukemia)
Procedure, shortened: as §1

[4] = tested on: NCI-H446 (Small Cell Lung Carcinoma)
Procedure, shortened: as §1

[5] = tested on: OAW-42 (Ovarian Carcinoma)
Procedure, shortened: as §1

[6] = tested on: RERF-GC-1B (Gastric Carcinoma)
Procedure, shortened: as §1

[7] = tested on: RERF-LC-Sq1 (Squamous Cell Lung Carcinoma)
Procedure, shortened: as §1

WM278 (Melanoma) = tested on: WM278 (Melanoma)
Procedure, shortened: as §1

[8] = tested on: CAL-62 (Thyroid Gland Carcinoma)
Procedure, shortened: as §1

[9] = tested on: HSC-39 (Gastric Carcinoma)
Procedure, shortened: as §1

IST-MES1 (Mesothelioma) = tested on: IST-MES1 (Mesothelioma)
Procedure, shortened: as §1

[10] = tested on: L-1236 (Hodgkin's Lymphoma)
Procedure, shortened: as §1

[11] = tested on: NCI-H2342 (Lung Adenocarcinoma)
Procedure, shortened: as §1

[12] = tested on: OVMIU (Ovarian Carcinoma)
Procedure, shortened: as §1

[13] = tested on: PSN1 (Pancreatic Carcinoma)
Procedure, shortened: as §1

[14] = tested on: REH (B-Lymphoblastic Leukemia)
Procedure, shortened: as §1

SF539 (Glioblastoma) = tested on: SF539 (Glioblastoma)
Procedure, shortened: as §1

[15] = tested on: SHP-77 (Small Cell Lung Carcinoma)
Procedure, shortened: as §1

[16] = tested on: SK-PN-DW (Other Solid Carcinomas)
Procedure, shortened: as §1

SMILES	Bliss excess (GB-1 (Glioblastoma))	Bliss excess [1]	Bliss excess [2]	Bliss excess [3]	Bliss excess [4]	Bliss excess [5]	Bliss excess [6]	Bliss excess [7]	Bliss excess (WM278 (Melanoma))	Bliss excess [8]	Bliss excess [9]	Bliss excess (IST-MES1 (Mesothelioma))	Bliss excess [10]	Bliss excess [11]	Bliss excess [12]	Bliss excess [13]	Bliss excess [14]	Bliss excess (SF539 (Glioblastoma))	Bliss excess [15]	Bliss excess [16]
COc1nnc2ccc(N3CCC(c4ccc(OCCN5CCN(C)C(=O)[C@H]5C)cc4)CC3)nn12 [AZD5153] + CN(CC[C@H](CSC1=CC=CC=C1)NC2=C(C=C(C=C2)S(=O)(=O)NC(=O)C3=CC=C(C=C3)N4CCC(CC4)[C@H](C5=CC=CC=C5C6=CC=C(C=C6)Cl)O)S(=O)(=O)C(F)(F)F)CCO [AZD4320] (first compound max 1 µM, 7x7, partner max 1 µM)	0.0003	-0.0035	0.0486	0.0222	0.107	0.0913	0.014	0.0113	0.0168	–	–	–	–	–	–	–	–	–	–	–
Cc1c2c(nn1C)CSCc1cc(n(C)n1)CSc1cc(c3ccccc3c1)OCCCc1c(C(=O)O)n(C)c3c-2c(Cl)ccc13 [AZD5991] + CCN(CCO)CCCOc1ccc2c(Nc3cc(CC(=O)Nc4cccc(F)c4)[nH]n3)ncnc2c1 [AZD2811] (first compound max 1 µM, 7x7, partner max 1 µM)	-0.0318	0.0432	0.0547	0.0133	–	0.0173	0.014	0.043	0.0657	0.0397	0.0233	-0.002	0.0255	-0.0613	-0.099	-0.0467	0.0422	0.0184	-0.034	0.0869
Cc1c2c(nn1C)CSCc1cc(n(C)n1)CSc1cc(c3ccccc3c1)OCCCc1c(C(=O)O)n(C)c3c-2c(Cl)ccc13 [AZD5991] + C[C@@H]1COCCN1C2=NC(=NC(=C2)C3(CC3)[S@](=N)(=O)C)C4=C5C=CNC5=NC=C4 [AZD6738] (first compound max 1 µM, 7x7, partner max 10 µM)	0.0116	0.0431	0.0258	0.0338	0.0708	0.0046	–	0.0273	0.0307	0.0278	-0.0026	–	0.104	0.0291	-0.0037	-0.0143	-0.0519	-0.0231	-0.0048	-0.0175
Cc1cc2ncnn2cc1Nc1ncc2c(n1)n(C1CCOCC1)c(=O)n2C [AZD7648] + C[C@@H]1COCCN1C2=NC(=NC(=C2)C3(CC3)[S@](=N)(=O)C)C4=C5C=CNC5=NC=C4 [AZD6738] (first compound max 10 µM, 7x7, partner max 10 µM)	-0.017	-0.0312	-0.0339	0.0286	0.0335	–	0.0094	-0.0231	0.0112	0.0264	0.0166	0.0176	0.0434	0.0271	0.0527	-0.0939	-0.0088	-0.0166	-0.0139	0.0154
Cc1cc2ncnn2cc1Nc1ncc2c(n1)n(C1CCOCC1)c(=O)n2C [AZD7648] + O=C(c1cc(Cc2n[nH]c(=O)c3ccccc23)ccc1F)N1CCN(C(=O)C2CC2)CC1 [Olaparib] (first compound max 10 µM, 7x7, partner max 10 µM)	-0.0227	0.0666	0.0079	0.0309	-0.0388	–	-0.076	-0.0095	-0.0309	-0.03	-0.0083	-0.0592	-0.0394	-0.0548	-0.0945	-0.0315	-0.0373	-0.0236	-0.0585	0.0223
COc1cccc2c1C(=O)c1c(O)c3c(c(O)c1C2=O)C[C@@](O)(C(=O)CO)C[C@@H]3O[C@H]1C[C@H](N)[C@H](O)[C@H](C)O1 [Doxorubicin] + Cc1cc2ncnn2cc1Nc1ncc2c(n1)n(C1CCOCC1)c(=O)n2C [AZD7648] (first compound max 1 µM, 7x7, partner max 10 µM)	0.0165	0.0644	0.004	0.0912	0.0855	–	-0.0142	0.0444	0.0204	0.0885	0.0909	0.0455	0.0332	0.0128	-0.0193	0.0173	0.177	0.0403	0.0556	0.105
CS(=O)(=O)CCNCc1ccc(-c2ccc3ncnc(Nc4ccc(OCc5cccc(F)c5)c(Cl)c4)c3c2)o1 [Lapatinib] + NC1(c2ccc(-c3nc4ccn5c(=O)[nH]nc5c4cc3-c3ccccc3)cc2)CCC1 [MK-2206] (first compound max 10 µM, 7x7, partner max 10 µM)	–	–	–	–	-0.0173	-0.0089	0.0194	–	–	-0.0034	0.104	0.0433	0.0138	-0.0499	0.0659	0.0205	0.0194	-0.0077	-0.0136	0.1
CC(=O)c1c(C)c2cnc(Nc3ccc(N4CCNCC4)cn3)nc2n(C2CCCC2)c1=O [Palbociclib] + CN(CC[C@H](CSC1=CC=CC=C1)NC2=C(C=C(C=C2)S(=O)(=O)NC(=O)C3=CC=C(C=C3)N4CCC(CC4)[C@H](C5=CC=CC=C5C6=CC=C(C=C6)Cl)O)S(=O)(=O)C(F)(F)F)CCO [AZD4320] (first compound max 10 µM, 7x7, partner max 1 µM)	-0.111	-0.0286	-0.125	-0.0137	-0.0065	-0.0177	-0.0147	-0.0176	-0.106	–	–	–	–	–	–	–	–	–	–	–
COc1cccc(OCCCN)c1-c1cc(Nc2cnc(C#N)cn2)n[nH]1 [Prexasertib] + C=CCn1c(=O)c2cnc(Nc3ccc(N4CCN(C)CC4)cc3)nc2n1-c1cccc(C(C)(C)O)n1 [AZD1775] (first compound max 1 µM, partner max 1 µM)	0.0483	0.0406	0.109	0.0311	0.0829	–	0.049	0.0621	0.0753	0.137	0.05	0.127	-0.0943	-0.0136	0.0574	0.178	0.114	0.0187	0.0413	0.0025
COc1cccc(OCCCN)c1-c1cc(Nc2cnc(C#N)cn2)n[nH]1 [Prexasertib] + CN(C)CCCOc1ccc(-c2ccc3ncc4c(c3c2)n(C2CCOCC2)c(=O)n4C)cn1 [AZD0156] (first compound max 1 µM, 7x7, partner max 1 µM)	-0.0079	0.0607	-0.0146	-0.0022	-0.0009	–	0.0049	-0.0209	0.0128	-0.0364	-0.0196	-0.0211	-0.0649	-0.0272	-0.0012	-0.0038	0.0171	-0.0339	0.0107	-0.0141
COc1cccc(OCCCN)c1-c1cc(Nc2cnc(C#N)cn2)n[nH]1 [Prexasertib] + C[C@@H]1COCCN1C2=NC(=NC(=C2)C3(CC3)[S@](=N)(=O)C)C4=C5C=CNC5=NC=C4 [AZD6738] (first compound max 1 µM, 7x7, partner max 10 µM)	-0.0337	0.0391	-0.0434	0.0043	0.0078	–	-0.119	-0.0492	-0.0364	-0.005	-0.0067	0.0093	-0.0199	0.0378	0.0388	0.0334	0.0032	-0.0046	0.0645	-0.0438
COc1cccc(OCCCN)c1-c1cc(Nc2cnc(C#N)cn2)n[nH]1 [Prexasertib] + Cc1cc2ncnn2cc1Nc1ncc2c(n1)n(C1CCOCC1)c(=O)n2C [AZD7648] (first compound max 1 µM, 7x7, partner max 10 µM)	0.0387	-0.0449	0.0762	-0.006	-0.008	–	0.0015	-0.0281	-0.009	-0.0128	0.008	-0.0032	-0.046	-0.0216	-0.0211	0.0106	-0.0041	0.014	-0.0143	-0.0503
COc1cccc(OCCCN)c1-c1cc(Nc2cnc(C#N)cn2)n[nH]1 [Prexasertib] + O=C(c1cc(Cc2n[nH]c(=O)c3ccccc23)ccc1F)N1CCN(C(=O)C2CC2)CC1 [Olaparib] (first compound max 1 µM, 7x7, partner max 10 µM)	-0.0002	-0.0077	-0.0535	0.0073	0.003	–	-0.0275	-0.0373	-0.0732	-0.0031	0.0127	-0.0105	-0.0391	-0.0509	-0.0938	-0.0146	-0.0271	0.0007	-0.0791	-0.0689
COc1cc2c(cc1OCCCCCOc1cc3c(cc1OC)C(=O)N1C=C(C)C[C@H]1C=N3)N=C[C@@H]1CC(C)=CN1C2=O [SG3199] + O=C(c1cc(Cc2n[nH]c(=O)c3ccccc23)ccc1F)N1CCN(C(=O)C2CC2)CC1 [Olaparib] (first compound max 0.001 µM, 7x7, partner max 10 µM)	-0.0328	0.0701	0.0483	0.0055	-0.0372	–	0.0263	0.0049	-0.0299	-0.0342	-0.0067	-0.0402	-0.0387	-0.0569	-0.0898	-0.0371	-0.0099	-0.0049	-0.0137	-0.0295
CCc1c2c(nc3ccc(O)cc13)-c1cc3c(c(=O)n1C2)COC(=O)[C@]3(O)CC [SN-38] + CN(C)CCCOc1ccc(-c2ccc3ncc4c(c3c2)n(C2CCOCC2)c(=O)n4C)cn1 [AZD0156] (first compound max 0.3 µM, 7x7, partner max 1 µM)	-0.0374	0.0187	-0.0374	0.0603	0.121	–	0.0092	0.114	0.042	-0.0143	0.0344	0.0085	-0.079	-0.0425	-0.0047	-0.0198	-0.0093	0.0216	0.0296	0.0355
